# Laboratory results taken from patent publication US4254256A, “Amino sugar compound” (Toyo Jozo company, Ltd., priority 1977, dated 1981).
# How the values were obtained:
# Solubility in solvents = assay type: physicochemical
# amylase = assay: Amylase test in vitro (amylase inhibitor unit); assay type: biochemical; conditions: 1 AIU = amount of inhibitor for about 50% inhibition; starch substrate, pH 6.9, 35° C.
# Method: The amylase activity of the novel amino sugar compound of the present invention was measured by the following method.
# Amylase inhibitor unit (1 AIU) is defined as the amount of inhibitor required to control the amylase unit by about 50%. The amylase unit (AU) is the value of enzyme to divide 1μ equivalent of glucoside bond in starch for 1 minute under the following test conditions. The μ equivalent of this divided bond is determined as reduced μ equivalent of sugar formed by Kurie's method which uses dinitrosalicylic acid. Standard curve using maltose is given as μ equivalent of maltose equivalent. A testing solution (0-20 μl) in 0.4 ml of a solution (pH 6.9) containing 0.001 mol of CaCl2, 0-10 μg of the inhibitor and 0.02 mol of sodium glycerophosphate is added to 0.1 ml of an amylase solution (20 to 22 AU/ml). This mixture is equilibrated in a water bath of 35° C. for about 10-20 minutes. Then, this is cultured at 35° C. for 5 minutes together with 0.5 ml of a 1% starch solution (soluble starch No. 1,252 from Marck, Darmstadt) preheated to 35° C. and thereafter 1 ml of dinitrosalicylic acid reagent (P. Bernfeld, Colowick-Kaplan, Meth. Enzymol., 1, 149) is added thereto. For developing color, the batch is heated in a boiling water bath for 5 minutes and then cooled and 10 ml of distilled water is added thereto. Absorbance of 540 nm is measured in comparison with blanks prepared in the same manner without using amylase. For evaluation, amylase activity which is still effective after addition of inhibitor is read from previously recorded amylase standard curve and inhibiting rate (%) of the amylase used is calculated from said amylase activity. The inhibiting rate is plotted as function of the quotient: [formula] Inhibiting point of 50% is read from this curve and is converted to AIU/mg of the inhibitor.
# [1] = acetone, ethyl acetate, chloroform
# [2] = water, methanol, dimethylformamide, dimethylsulfoxide, hot ethanol
SMILES,Solubility in solvents (Solubility in solvents; [1]),Solubility in solvents (Solubility in solvents; [2]),Amylase inhibitor unit (amylase)
OCC1=CC(NC2C(CO)OC(O[C@H]3[C@H](O)[C@@H](O)C(O)O[C@@H]3CO)C(O)C2O)C(O)C(O)C1O (some centres unmarked) [[I] (wherein n=1 and m=0)],insoluble,soluble,3.4×10^2 AIU/mg
"OCC1=CC(NC2C(CO)OC(O[C@H]3[C@H](O)[C@@H](O)C(O[C@H]4[C@H](O)[C@@H](O)C(O)O[C@@H]4CO)O[C@@H]3CO)C(O)C2O)C(O)C(O)C1OC1O[C@H](CO)[C@@H](O)[C@H](O)[C@H]1O (some centres unmarked) [[I] (wherein n=2, m=1)]",,,1.2×10^3 AIU/mg
OCC1=CC(NC2C(CO)OC(O[C@H]3[C@H](O)[C@@H](O)C(O[C@H]4[C@H](O)[C@@H](O)C(O)O[C@@H]4CO)O[C@@H]3CO)C(O)C2O)C(O)C(O)C1O (some centres unmarked) [[I] (wherein n=2 and m=0)],insoluble,soluble,3.6×10^2 AIU/mg
"OCC1=CC(NC2C(CO)OC(O[C@H]3[C@H](O)[C@@H](O)C(O[C@H]4[C@H](O)[C@@H](O)C(O[C@H]5[C@H](O)[C@@H](O)C(O)O[C@@H]5CO)O[C@@H]4CO)O[C@@H]3CO)C(O)C2O)C(O)C(O)C1O (some centres unmarked) [[I] (wherein n=3, m=0)]",,,1.4×10^3 AIU/mg
